Experimental data published in the kinase profiling compilation of Christmann-Franck et al. (2016).
One block for each compound: values may come before it.

How the values were obtained:
Assay in all cases: KINOMEscan competition binding
Conditions in all cases: compound 10.0 µM
[1] = tested on: ABL1 (human), P00519 [M351T]
[2] = molecular target: ACVR1B (human) (UniProt P36896)
[3] = molecular target: ANKK1 (human) (UniProt Q8NFD2)
[4] = molecular target: BLK (human) (UniProt P51451)
[5] = molecular target: CDK19 (human) (UniProt Q9BWU1)
[6] = molecular target: CDK3 (human) (UniProt Q00526)
[7] = molecular target: CDK8 (human) (UniProt P49336)
[8] = molecular target: CLK2 (human) (UniProt P49760)
[9] = molecular target: CSF1R (human) (UniProt P07333)
[10] = molecular target: DAPK2 (human) (UniProt Q9UIK4)
[11] = molecular target: EPHA6 (human) (UniProt Q9UF33)
[12] = molecular target: EPHB4 (human) (UniProt P54760)
[13] = molecular target: INSRR (human) (UniProt P14616)
[14] = molecular target: KIT (human) (UniProt P10721)
[15] = tested on: KIT (human), P10721 [D816V]
[16] = tested on: KIT (human), P10721 [V559D/T670I]
[17] = molecular target: MAP3K10 (human) (UniProt Q02779)
[18] = molecular target: MAP3K3 (human) (UniProt Q99759)
[19] = molecular target: MAP3K7 (human) (UniProt O43318)
[20] = molecular target: MAPK11 (human) (UniProt Q15759)
[21] = molecular target: MAPK7 (human) (UniProt Q13164)
[22] = molecular target: MARK4 (human) (UniProt Q96L34)
[23] = molecular target: MYLK3 (human) (UniProt Q32MK0)
[24] = molecular target: PHKG1 (human) (UniProt Q16816)
[25] = molecular target: PHKG2 (human) (UniProt P15735)
[26] = molecular target: PLK3 (human) (UniProt Q9H4B4)
[27] = molecular target: PLK4 (human) (UniProt O00444)
[28] = molecular target: PRKACB (human) (UniProt P22694)
[29] = molecular target: PRKX (human) (UniProt P51817)
[30] = molecular target: RIOK1 (human) (UniProt Q9BRS2)
[31] = molecular target: RPS6KA5 KD1 (human) (UniProt O75582)
[32] = molecular target: RPS6KA6 KD2 (human) (UniProt Q9UK32)
[33] = molecular target: SLK (human) (UniProt Q9H2G2)
[34] = molecular target: SRPK2 (human) (UniProt P78362)
[35] = molecular target: STK16 (human) (UniProt O75716)
[36] = molecular target: SYK (human) (UniProt P43405)
[37] = molecular target: TAOK3 (human) (UniProt Q9H2K8)
[38] = molecular target: ULK3 (human) (UniProt Q6PHR2)
[39] = molecular target: FGFR4 (human) (UniProt P22455)
[40] = tested on: FLT3 (human), P36888 [D835Y]
[41] = molecular target: MAP4K1 (human) (UniProt Q92918)
[42] = tested on: RET (human), P07949 [V804L]

Sequence of MYLK3 (human) (Q32MK0 whole entry, looked up): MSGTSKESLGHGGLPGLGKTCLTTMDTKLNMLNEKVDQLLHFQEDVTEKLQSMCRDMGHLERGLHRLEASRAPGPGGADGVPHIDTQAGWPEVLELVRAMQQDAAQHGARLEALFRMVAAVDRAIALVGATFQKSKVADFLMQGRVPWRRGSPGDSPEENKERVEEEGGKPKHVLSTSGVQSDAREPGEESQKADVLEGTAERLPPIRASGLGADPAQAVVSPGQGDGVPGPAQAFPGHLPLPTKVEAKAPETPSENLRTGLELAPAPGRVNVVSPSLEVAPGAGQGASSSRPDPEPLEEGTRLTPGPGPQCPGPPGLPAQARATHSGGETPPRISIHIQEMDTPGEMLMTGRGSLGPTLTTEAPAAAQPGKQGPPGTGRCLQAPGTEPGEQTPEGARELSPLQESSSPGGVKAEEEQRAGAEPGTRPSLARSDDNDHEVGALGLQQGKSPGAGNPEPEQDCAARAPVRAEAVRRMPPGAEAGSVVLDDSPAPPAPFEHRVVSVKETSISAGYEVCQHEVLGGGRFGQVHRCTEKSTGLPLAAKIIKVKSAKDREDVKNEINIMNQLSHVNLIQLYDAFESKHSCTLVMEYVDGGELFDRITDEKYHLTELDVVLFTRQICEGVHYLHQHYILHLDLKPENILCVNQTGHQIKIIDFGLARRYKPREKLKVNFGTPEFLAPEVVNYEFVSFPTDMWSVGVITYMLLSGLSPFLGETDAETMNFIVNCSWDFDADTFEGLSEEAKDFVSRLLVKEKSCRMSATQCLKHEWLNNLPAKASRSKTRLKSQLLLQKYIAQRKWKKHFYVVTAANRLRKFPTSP
Sequence of DAPK2 (human) (Q9UIK4 whole entry, looked up): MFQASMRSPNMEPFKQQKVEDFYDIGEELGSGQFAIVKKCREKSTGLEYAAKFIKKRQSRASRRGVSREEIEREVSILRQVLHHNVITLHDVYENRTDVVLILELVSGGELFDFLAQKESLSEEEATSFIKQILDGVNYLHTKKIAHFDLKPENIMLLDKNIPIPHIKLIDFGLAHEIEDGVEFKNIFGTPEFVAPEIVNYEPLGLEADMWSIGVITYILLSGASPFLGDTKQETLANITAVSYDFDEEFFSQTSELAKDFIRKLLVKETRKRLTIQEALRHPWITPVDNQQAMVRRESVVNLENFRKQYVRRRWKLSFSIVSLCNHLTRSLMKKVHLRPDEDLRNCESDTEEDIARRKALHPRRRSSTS
Sequence of CDK3 (human) (Q00526 whole entry, looked up): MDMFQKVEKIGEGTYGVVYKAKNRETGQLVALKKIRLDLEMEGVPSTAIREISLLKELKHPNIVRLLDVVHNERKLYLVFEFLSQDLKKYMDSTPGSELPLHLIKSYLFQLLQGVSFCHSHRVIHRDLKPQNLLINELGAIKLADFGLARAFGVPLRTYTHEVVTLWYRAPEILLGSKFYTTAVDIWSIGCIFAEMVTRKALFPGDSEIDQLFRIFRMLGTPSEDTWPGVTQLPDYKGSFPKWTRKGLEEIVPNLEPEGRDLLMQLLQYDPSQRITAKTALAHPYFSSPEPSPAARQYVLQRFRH
Sequence of MAP3K7 (human) (O43318 whole entry, looked up): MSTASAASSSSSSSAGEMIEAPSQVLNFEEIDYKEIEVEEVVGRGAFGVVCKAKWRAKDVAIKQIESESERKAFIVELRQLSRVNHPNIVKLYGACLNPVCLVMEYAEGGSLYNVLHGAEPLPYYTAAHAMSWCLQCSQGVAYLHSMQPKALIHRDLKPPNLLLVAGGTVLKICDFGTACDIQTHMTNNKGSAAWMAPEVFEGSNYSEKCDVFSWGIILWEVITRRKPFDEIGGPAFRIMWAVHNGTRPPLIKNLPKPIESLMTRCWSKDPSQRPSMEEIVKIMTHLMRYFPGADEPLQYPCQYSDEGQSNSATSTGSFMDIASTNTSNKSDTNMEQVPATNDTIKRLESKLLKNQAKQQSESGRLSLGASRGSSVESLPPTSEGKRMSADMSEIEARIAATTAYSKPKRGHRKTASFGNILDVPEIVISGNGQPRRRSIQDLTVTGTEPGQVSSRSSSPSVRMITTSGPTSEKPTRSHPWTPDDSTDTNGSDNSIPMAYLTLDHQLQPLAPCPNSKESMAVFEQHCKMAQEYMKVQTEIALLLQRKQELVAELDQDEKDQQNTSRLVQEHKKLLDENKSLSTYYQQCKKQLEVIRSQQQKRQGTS
Sequence of RPS6KA6 KD2 (human) (Q9UK32 whole entry, looked up): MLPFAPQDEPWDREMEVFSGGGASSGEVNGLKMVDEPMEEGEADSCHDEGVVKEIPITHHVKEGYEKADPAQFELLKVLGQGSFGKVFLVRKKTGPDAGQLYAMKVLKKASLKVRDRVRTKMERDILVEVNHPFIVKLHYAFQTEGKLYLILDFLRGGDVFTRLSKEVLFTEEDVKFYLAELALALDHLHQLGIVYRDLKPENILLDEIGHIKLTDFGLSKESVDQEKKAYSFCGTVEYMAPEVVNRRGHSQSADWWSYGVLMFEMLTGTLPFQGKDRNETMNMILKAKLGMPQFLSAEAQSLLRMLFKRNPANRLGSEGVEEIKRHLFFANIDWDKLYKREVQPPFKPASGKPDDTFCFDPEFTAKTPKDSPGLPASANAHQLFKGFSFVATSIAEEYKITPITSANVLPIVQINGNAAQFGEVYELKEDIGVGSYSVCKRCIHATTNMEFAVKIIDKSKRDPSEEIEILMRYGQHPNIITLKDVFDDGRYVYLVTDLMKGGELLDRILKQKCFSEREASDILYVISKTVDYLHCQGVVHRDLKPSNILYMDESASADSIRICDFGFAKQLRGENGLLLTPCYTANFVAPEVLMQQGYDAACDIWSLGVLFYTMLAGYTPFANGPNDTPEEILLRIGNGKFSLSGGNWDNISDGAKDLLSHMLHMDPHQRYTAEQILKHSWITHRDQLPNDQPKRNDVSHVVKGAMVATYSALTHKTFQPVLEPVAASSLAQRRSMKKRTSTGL
Sequence of ULK3 (human) (Q6PHR2 whole entry, looked up): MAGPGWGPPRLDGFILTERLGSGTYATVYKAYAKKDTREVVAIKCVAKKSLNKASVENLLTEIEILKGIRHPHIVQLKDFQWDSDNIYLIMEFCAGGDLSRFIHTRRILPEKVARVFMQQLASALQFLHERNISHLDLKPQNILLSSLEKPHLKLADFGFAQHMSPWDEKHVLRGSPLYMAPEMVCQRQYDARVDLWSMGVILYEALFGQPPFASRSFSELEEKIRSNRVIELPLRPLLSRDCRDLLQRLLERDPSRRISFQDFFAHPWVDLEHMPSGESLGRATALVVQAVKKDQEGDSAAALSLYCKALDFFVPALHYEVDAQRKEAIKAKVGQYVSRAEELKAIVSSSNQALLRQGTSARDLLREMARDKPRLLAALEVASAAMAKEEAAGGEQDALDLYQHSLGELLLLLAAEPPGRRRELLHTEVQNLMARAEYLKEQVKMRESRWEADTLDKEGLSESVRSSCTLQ
Sequence of RPS6KA5 KD1 (human) (O75582 whole entry, looked up): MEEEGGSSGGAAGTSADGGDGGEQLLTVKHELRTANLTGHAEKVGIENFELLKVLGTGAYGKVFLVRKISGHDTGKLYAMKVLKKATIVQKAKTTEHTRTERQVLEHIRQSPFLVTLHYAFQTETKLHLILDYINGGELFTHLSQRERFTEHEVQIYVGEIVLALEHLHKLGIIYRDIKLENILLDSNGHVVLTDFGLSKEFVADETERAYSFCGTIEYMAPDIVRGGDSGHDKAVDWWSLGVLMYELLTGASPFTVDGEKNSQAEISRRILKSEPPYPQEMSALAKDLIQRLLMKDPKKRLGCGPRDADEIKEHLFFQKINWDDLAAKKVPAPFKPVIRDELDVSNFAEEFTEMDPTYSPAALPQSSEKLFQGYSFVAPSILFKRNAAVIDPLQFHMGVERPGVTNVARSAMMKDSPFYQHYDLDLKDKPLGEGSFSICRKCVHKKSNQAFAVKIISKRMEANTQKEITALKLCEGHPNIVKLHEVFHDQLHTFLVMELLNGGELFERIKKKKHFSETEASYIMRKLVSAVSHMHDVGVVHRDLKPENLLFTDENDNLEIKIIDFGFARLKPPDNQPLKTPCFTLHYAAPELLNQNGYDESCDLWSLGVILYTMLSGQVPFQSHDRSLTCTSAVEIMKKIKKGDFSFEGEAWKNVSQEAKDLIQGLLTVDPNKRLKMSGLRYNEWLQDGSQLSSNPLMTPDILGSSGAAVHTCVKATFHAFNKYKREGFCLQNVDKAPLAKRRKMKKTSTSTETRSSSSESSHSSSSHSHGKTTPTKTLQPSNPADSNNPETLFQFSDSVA
Sequence of RIOK1 (human) (Q9BRS2 whole entry, looked up): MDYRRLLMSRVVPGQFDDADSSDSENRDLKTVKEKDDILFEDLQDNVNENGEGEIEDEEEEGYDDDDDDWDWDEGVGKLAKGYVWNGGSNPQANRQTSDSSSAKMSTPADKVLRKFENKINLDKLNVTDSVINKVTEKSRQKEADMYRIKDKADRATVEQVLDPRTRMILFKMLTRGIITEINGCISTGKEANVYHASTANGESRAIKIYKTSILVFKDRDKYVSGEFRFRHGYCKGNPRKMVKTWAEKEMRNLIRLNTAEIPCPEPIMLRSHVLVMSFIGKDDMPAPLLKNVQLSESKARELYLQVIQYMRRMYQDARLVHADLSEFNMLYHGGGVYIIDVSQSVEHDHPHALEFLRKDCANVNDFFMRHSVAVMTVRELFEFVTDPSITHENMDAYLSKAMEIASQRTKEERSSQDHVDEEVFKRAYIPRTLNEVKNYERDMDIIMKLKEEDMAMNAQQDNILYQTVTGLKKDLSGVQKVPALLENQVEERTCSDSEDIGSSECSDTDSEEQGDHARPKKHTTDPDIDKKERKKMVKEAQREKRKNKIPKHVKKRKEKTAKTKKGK
Sequence of STK16 (human) (O75716 whole entry, looked up): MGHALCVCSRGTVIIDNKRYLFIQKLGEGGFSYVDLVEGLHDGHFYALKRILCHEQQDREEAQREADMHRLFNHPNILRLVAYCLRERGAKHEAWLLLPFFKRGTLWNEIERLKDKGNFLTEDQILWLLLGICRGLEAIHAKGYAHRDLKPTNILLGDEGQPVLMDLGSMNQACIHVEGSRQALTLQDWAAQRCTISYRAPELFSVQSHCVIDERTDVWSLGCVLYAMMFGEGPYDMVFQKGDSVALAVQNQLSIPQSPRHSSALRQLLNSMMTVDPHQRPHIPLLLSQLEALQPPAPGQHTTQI

kinase still bound, per cent of control [1]: 5%
kinase still bound, per cent of control [2]: 0.05%
kinase still bound, per cent of control [3]: 40%
kinase still bound, per cent of control [4]: 0.1%
kinase still bound, per cent of control [5]: 40%
kinase still bound, per cent of control [6]: 40%
kinase still bound, per cent of control [7]: 40%
kinase still bound, per cent of control [8]: 0%
kinase still bound, per cent of control [9]: 0%
kinase still bound, per cent of control [10]: 12%
kinase still bound, per cent of control [11]: 3.1%
kinase still bound, per cent of control [12]: 17%
kinase still bound, per cent of control [13]: 0.35%
kinase still bound, per cent of control [14]: 0.1%
kinase still bound, per cent of control [15]: 3.1%
kinase still bound, per cent of control [16]: 0.95%
kinase still bound, per cent of control [17]: 4.6%
kinase still bound, per cent of control [18]: 2.8%
kinase still bound, per cent of control [19]: 2.2%
kinase still bound, per cent of control [20]: 40%
kinase still bound, per cent of control [21]: 0%
kinase still bound, per cent of control [22]: 0%
kinase still bound, per cent of control [23]: 40%
kinase still bound, per cent of control [24]: 0.1%
kinase still bound, per cent of control [25]: 0%
kinase still bound, per cent of control [26]: 0%
kinase still bound, per cent of control [27]: 0%
kinase still bound, per cent of control [28]: 9.9%
kinase still bound, per cent of control [29]: 28%
kinase still bound, per cent of control [30]: 2.6%
kinase still bound, per cent of control [31]: 40%
kinase still bound, per cent of control [32]: 1.8%
kinase still bound, per cent of control [33]: 0.1%
kinase still bound, per cent of control [34]: 12%
kinase still bound, per cent of control [35]: 2.8%
kinase still bound, per cent of control [36]: 3.4%
kinase still bound, per cent of control [37]: 0.1%
kinase still bound, per cent of control [38]: 0%
SMILES: COc1cc(N2CCC(N3CCN(C)CC3)CC2)ccc1Nc1ncc(Cl)c(Nc2ccccc2S(=O)(=O)C(C)C)n1

SMILES: CCN1CCN(Cc2ccc(NC(=O)c3ccc(C)c(/C=C/c4cnc(Nc5cc(N6CCNCC6)nc(C)n5)cn4)c3)cc2C(F)(F)F)CC1
kinase still bound, per cent of control [1]: 3.8%
kinase still bound, per cent of control [2]: 96%
kinase still bound, per cent of control [3]: 9.6%
kinase still bound, per cent of control [4]: 0.1%
kinase still bound, per cent of control [5]: 3.5%
kinase still bound, per cent of control [6]: 100%
kinase still bound, per cent of control [7]: 3.6%
kinase still bound, per cent of control [8]: 86%
kinase still bound, per cent of control [9]: 1.1%
kinase still bound, per cent of control [10]: 66%
kinase still bound, per cent of control [11]: 51%
kinase still bound, per cent of control [12]: 23%
kinase still bound, per cent of control [39]: 34%
kinase still bound, per cent of control [40]: 3.2%
kinase still bound, per cent of control [13]: 44%
kinase still bound, per cent of control [14]: 0.15%
kinase still bound, per cent of control [15]: 25%
kinase still bound, per cent of control [16]: 14%
kinase still bound, per cent of control [17]: 30%
kinase still bound, per cent of control [18]: 0.3%
kinase still bound, per cent of control [19]: 0.75%
kinase still bound, per cent of control [41]: 0%
kinase still bound, per cent of control [20]: 3.2%
kinase still bound, per cent of control [21]: 100%
kinase still bound, per cent of control [22]: 100%
kinase still bound, per cent of control [23]: 59%
kinase still bound, per cent of control [24]: 100%
kinase still bound, per cent of control [25]: 100%
kinase still bound, per cent of control [26]: 83%
kinase still bound, per cent of control [27]: 92%
kinase still bound, per cent of control [28]: 90%
kinase still bound, per cent of control [29]: 100%
kinase still bound, per cent of control [42]: 1.2%
kinase still bound, per cent of control [30]: 100%
kinase still bound, per cent of control [31]: 100%
kinase still bound, per cent of control [32]: 11%
kinase still bound, per cent of control [33]: 2.4%
kinase still bound, per cent of control [34]: 100%
kinase still bound, per cent of control [35]: 100%
kinase still bound, per cent of control [36]: 15%
kinase still bound, per cent of control [37]: 0%
kinase still bound, per cent of control [38]: 1.6%

SMILES: CCOc1cc(N2CCC(N3CCCCC3)CC2)ccc1Nc1nc(Nc2ccccc2S(=O)(=O)C(C)C)c2cn[nH]c2n1
kinase still bound, per cent of control [1]: 53%
kinase still bound, per cent of control [2]: 100%
kinase still bound, per cent of control [3]: 100%
kinase still bound, per cent of control [4]: 100%
kinase still bound, per cent of control [5]: 100%
kinase still bound, per cent of control [6]: 85%
kinase still bound, per cent of control [7]: 100%
kinase still bound, per cent of control [8]: 2.2%
kinase still bound, per cent of control [9]: 99%
kinase still bound, per cent of control [10]: 64%
kinase still bound, per cent of control [11]: 100%
kinase still bound, per cent of control [12]: 99%
kinase still bound, per cent of control [39]: 100%
kinase still bound, per cent of control [40]: 59%
kinase still bound, per cent of control [13]: 0.4%
kinase still bound, per cent of control [14]: 87%
kinase still bound, per cent of control [15]: 74%
kinase still bound, per cent of control [16]: 100%
kinase still bound, per cent of control [17]: 100%
kinase still bound, per cent of control [18]: 69%
kinase still bound, per cent of control [19]: 59%
kinase still bound, per cent of control [41]: 54%
kinase still bound, per cent of control [20]: 100%
kinase still bound, per cent of control [21]: 0.9%
kinase still bound, per cent of control [22]: 71%
kinase still bound, per cent of control [23]: 100%
kinase still bound, per cent of control [24]: 24%
kinase still bound, per cent of control [25]: 21%
kinase still bound, per cent of control [26]: 98%
kinase still bound, per cent of control [27]: 74%
kinase still bound, per cent of control [28]: 100%
kinase still bound, per cent of control [29]: 100%
kinase still bound, per cent of control [42]: 82%
kinase still bound, per cent of control [30]: 100%
kinase still bound, per cent of control [31]: 100%
kinase still bound, per cent of control [32]: 2.1%
kinase still bound, per cent of control [33]: 14%
kinase still bound, per cent of control [34]: 100%
kinase still bound, per cent of control [35]: 76%
kinase still bound, per cent of control [36]: 100%
kinase still bound, per cent of control [37]: 36%
kinase still bound, per cent of control [38]: 100%

kinase still bound, per cent of control [1]: 0.35%
kinase still bound, per cent of control [3]: 23%
kinase still bound, per cent of control [4]: 0.45%
kinase still bound, per cent of control [5]: 0.1%
kinase still bound, per cent of control [7]: 3.9%
kinase still bound, per cent of control [9]: 0%
kinase still bound, per cent of control [39]: 0.45%
kinase still bound, per cent of control [40]: 14%
kinase still bound, per cent of control [13]: 23%
kinase still bound, per cent of control [14]: 0%
kinase still bound, per cent of control [16]: 0.05%
kinase still bound, per cent of control [18]: 12%
kinase still bound, per cent of control [41]: 1.6%
kinase still bound, per cent of control [20]: 0%
kinase still bound, per cent of control [28]: 14%
kinase still bound, per cent of control [42]: 0.8%
kinase still bound, per cent of control [31]: 4.7%
kinase still bound, per cent of control [33]: 2%
kinase still bound, per cent of control [36]: 6.2%
kinase still bound, per cent of control [38]: 0.1%
SMILES: CCN1CCN(Cc2ccc(NC(=O)c3ccc(C)c(Oc4ccnc5[nH]ccc45)c3)cc2C(F)(F)F)CC1
